# Measurements reported in patent US20030207819A1, “Compositions and methods for treating inflammatory connective tissue diseases” (priority 2002, published 2003).
# How the values were obtained:
# Type in all cases: in vivo, human
# [1] = tested on: patient with undifferentiated connective tissue disease; assay: Example 6: clarithromycin trial, VAS and joint assessment; conditions: person
# Description: A patient, was first seen in September 1999. […] They have used a number of anti-inflammatory agents frequently for therapy.
# On the basis of the findings, including recurrent episodes of arthritis, Raynaud's, and thickening of the hands, connective tissue disease diagnoses such as Mixed Connective Tissue Disease or Progressive Systemic Sclerosis were considered.
# Based on these findings, a diagnosis of Undifferentiated Connective Tissue Disease was made. Therapy was initiated with hydroxychloroquine ([…]®, Sanofi-Synthelabo, Inc.) and a non-steroidal anti-inflammatory agent. They utilized steroid dose packs periodically for symptomatic relief of their peripheral symptoms as well as their neck symptoms.
# On examination, they had symptoms and findings much as before and a diagnosis of Undifferentiated Connective Tissue Disease was made. The patient agreed to undergo a trial with clarithromycin.
# Following screening and baseline evaluations, the patient was begun on clarithromycin (BIAXIN®, Abbott Laboratories).
# 25, 2003 (“Visit 3”), for their first recheck visit.
# When seen for their one month evaluation, the patient had been off steroid medication for approximately ten days.
# Further assessment of their status was made on Apr. 13, 2003 at which time they were now off steroids for almost a one-month period.
# Patient was again seen Apr. 21, 2003 (“Visit Four”), for their formal two-month follow-up on clarithromycin.
# [2] = tested on: patient with undifferentiated connective tissue disease; assay: Example 1: clinical observation of patient on clarithromycin; conditions: person; switched from clarithromycin to azithromycin 500 mg day 1, 250 mg/day days 2 through 5
# Description: We elected to continue them on this antibiotic. […] Because the patient was on Lodine (NSAID) at the same time, we elected to see if they could stop the Lodine and still have relief of symptoms.
# [3] = tested on: patient with low-grade connective tissue symptoms; assay: Example 5: clarithromycin study, VAS and joint assessment; conditions: person
# Description: In 1991, it was elected to begin the patient on hydroxychloroquine ([…]®, Sanofi-Synthelabo, Inc.) given their low-grade connective tissue symptoms not responding to non-steroidal anti-inflammatory therapy. […] A trial of hydroxychloroquine was again initiated to see how they would tolerate it. […] Hydroxychloroquine was discontinued when they wanted to attempt getting pregnant again. Therapy most recently consisted of non-steroidal inflammatory agents and physical therapy.
# On Feb. 27, 2003, the patient agreed to participate in the clarithromycin study. […] The patient was begun on clarithromycin (BIAXIN®, Abbott Laboratories) 500 mg twice per day.
structure (smiles),measurement,setting,value
CC1(C)S[C@@H]2[C@H](NC(=O)[C@H](N)c3ccc(O)cc3)C(=O)N2[C@H]1C(=O)O [amoxicillin],effect on pain,[1]; amoxicillin tried on their own,of no help
CC[C@H]1OC(=O)[C@H](C)[C@@H](O[C@H]2C[C@@](C)(OC)[C@@H](O)[C@H](C)O2)[C@H](C)[C@@H](O[C@@H]2O[C@H](C)C[C@H](N(C)C)[C@H]2O)[C@](C)(O)C[C@@H](C)CN(C)[C@H](C)[C@@H](O)[C@]1(C)O [azithromycin],Symptoms,[2],no increase in symptoms
CCN(CCO)CCCC(C)Nc1ccnc2cc(Cl)ccc12 (centres unmarked) [hydroxychloroquine],reason for discontinuation (adverse effect),"[3]; hydroxychloroquine begun 1991, approximately nine months",weight loss
same,symptomatic improvement,"[1]; hydroxychloroquine with a non-steroidal anti-inflammatory agent, approximately six months",did not feel significant improvement
CCN(CC)CCCC(C)Nc1c2ccc(Cl)cc2nc2ccc(OC)cc12 (centres unmarked) [quinacrine],reason for discontinuation (skin colour),"[3]; quinacrine approximately one year, non-toxic condition",too yellow
